# Measurements from BindingDB's records for doi:10.1016/j.bmcl.2009.12.085 (Bristol-Myers Squibb Pharmaceutical Research and Development, 2010).
# Target: Potassium voltage-gated channel subfamily A member 5 (Homo sapiens, UniProt P22460)
# Assay: Inhibition of human Kv1.5 channel expressed in mouse L929 cells
# Sequence of Potassium voltage-gated channel subfamily A member 5 (P22460 whole entry): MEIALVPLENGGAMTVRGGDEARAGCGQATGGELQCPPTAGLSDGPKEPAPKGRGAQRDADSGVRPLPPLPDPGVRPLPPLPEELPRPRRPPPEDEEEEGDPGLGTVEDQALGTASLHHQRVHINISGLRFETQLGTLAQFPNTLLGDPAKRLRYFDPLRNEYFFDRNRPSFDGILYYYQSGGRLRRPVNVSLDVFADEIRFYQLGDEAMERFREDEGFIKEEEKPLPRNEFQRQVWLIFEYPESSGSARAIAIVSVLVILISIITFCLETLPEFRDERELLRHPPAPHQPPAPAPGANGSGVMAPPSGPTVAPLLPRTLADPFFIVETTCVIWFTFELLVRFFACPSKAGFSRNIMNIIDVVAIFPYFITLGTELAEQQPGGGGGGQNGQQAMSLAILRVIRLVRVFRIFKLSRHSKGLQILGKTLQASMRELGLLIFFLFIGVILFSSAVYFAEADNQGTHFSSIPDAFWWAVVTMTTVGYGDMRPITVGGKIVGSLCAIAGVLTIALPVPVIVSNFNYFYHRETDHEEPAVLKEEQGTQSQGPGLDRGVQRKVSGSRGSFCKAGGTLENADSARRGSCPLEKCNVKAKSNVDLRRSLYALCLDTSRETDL
row,IC50 [nM],Structure (SMILES)
1,150,"CC1=Nc2ccnn2C(c2ccc(Cl)c(Cl)c2)C1C(=O)N1CCCC1c1ccccc1 (centres undefined) [(7-(3,4-dichlorophenyl)-5-methyl-4,7-dihydropyrazolo[1,5-a]pyrimidin-6-yl)(2-phenylpyrrolidin-1-yl)methanone]"
2,> 1000,"CC1=Nc2ccnn2C(c2ccc(Cl)c(Cl)c2)C1C(=O)N1CCC[C@H]1c1nnn[nH]1 (stereo partly drawn) [((S)-2-(1H-tetrazol-5-yl)pyrrolidin-1-yl)(7-(3,4-dichlorophenyl)-5-methyl-4,7-dihydropyrazolo[1,5-a]pyrimidin-6-yl)methanone]"
3,> 1000,"CC1=Nc2ccnn2C(c2ccc(Cl)c(Cl)c2)C1C(=O)N1CCC[C@H]1c1nnc[nH]1 (stereo partly drawn) [((S)-2-(4H-1,2,4-triazol-3-yl)pyrrolidin-1-yl)(7-(3,4-dichlorophenyl)-5-methyl-4,7-dihydropyrazolo[1,5-a]pyrimidin-6-yl)methanone]"
4,> 1000,"CC1=Nc2ccnn2C(c2ccc(Cl)c(Cl)c2)C1C(=O)N1CCC[C@H]1c1nnc(N)s1 (stereo partly drawn) [((S)-2-(5-amino-1,3,4-thiadiazol-2-yl)pyrrolidin-1-yl)(7-(3,4-dichlorophenyl)-5-methyl-4,7-dihydropyrazolo[1,5-a]pyrimidin-6-yl)methanone]"

# Continued, molecule first:
row,Structure (SMILES),IC50 [nM]
1,"CC1=Nc2ccnn2C(c2ccc(Cl)c(Cl)c2)C1C(=O)N1CCC[C@H]1c1n[nH]c(=O)n1C (stereo partly drawn) [3-((2S)-1-(7-(3,4-dichlorophenyl)-5-methyl-4,7-dihydropyrazolo[1,5-a]pyrimidine-6-carbonyl)pyrrolidin-2-yl)-4-methyl-1H-1,2,4-triazol-5(4H)-one]",> 1000
2,"COC(=O)[C@@H]1CCCN1C(=O)C1C(C)=Nc2ccnn2C1c1ccc(Cl)c(Cl)c1 (stereo partly drawn) [(2S)-methyl 1-(7-(3,4-dichlorophenyl)-5-methyl-4,7-dihydropyrazolo[1,5-a]pyrimidine-6-carbonyl)pyrrolidine-2-carboxylate]",150
3,"CC1=Nc2ccnn2C(c2ccc(Cl)c(Cl)c2)C1C(=O)N1CCCC1c1ccc(F)cc1 (centres undefined) [(7-(3,4-dichlorophenyl)-5-methyl-4,7-dihydropyrazolo[1,5-a]pyrimidin-6-yl)(2-(4-fluorophenyl)pyrrolidin-1-yl)methanone]",70
4,"CC1=Nc2ccnn2C(c2ccc(Cl)c(Cl)c2)C1C(=O)N1CCCC1c1ccccn1 (centres undefined) [(7-(3,4-dichlorophenyl)-5-methyl-4,7-dihydropyrazolo[1,5-a]pyrimidin-6-yl)(2-(pyridin-2-yl)pyrrolidin-1-yl)methanone]",660
5,"CC1=Nc2ccnn2C(c2ccc(Cl)c(Cl)c2)C1C(=O)N1CCCC1c1cccnc1 (centres undefined) [(7-(3,4-dichlorophenyl)-5-methyl-4,7-dihydropyrazolo[1,5-a]pyrimidin-6-yl)(2-(pyridin-3-yl)pyrrolidin-1-yl)methanone]",> 1000
